In ChEMBL document CHEMBL1144598, “Synthesis and characterization of cobalt(II), nickel(II), copper(II) and zinc(II) complexes with Schiff base derived from 4-amino-3-mercapto-6-methyl-5-oxo-1,2,4-triazine” (2007):
In brackets after ≈: the same amount, converted by molar mass.

Experiments:
Staphylococcus aureus = assay: Antibacterial activity against Staphylococcus aureus MTCC 3160 by agar dilution method; format: functional
Salmonella typhi = assay: Antibacterial activity against Salmonella typhi MTCC 733 by agar dilution method; format: functional, Salmonella enterica subsp. enterica serovar Typhi; settings: Salmonella enterica
Escherichia coli = assay: Antibacterial activity against Escherichia coli MTCC 51 by agar dilution method; format: functional
Bacillus subtilis = assay: Antibacterial activity against Bacillus subtilis MTCC 121 by agar dilution method; format: functional
[1] = system: Staphylococcus epidermidis; assay: Antibacterial activity against Staphylococcus epidermidis MTCC 2639 by agar dilution method; format: functional

Compound	MIC (Staphylococcus aureus) [µg/mL]	MIC (Salmonella typhi) [µg/mL]	MIC (Escherichia coli) [µg/mL]	MIC (Bacillus subtilis) [µg/mL]	MIC [1] [µg/mL]
C/C(=N\n1c(S)nnc(C)c1=O)c1ccccn1	16 (≈ 61.2 µM)	16 (≈ 61.2 µM)	16 (≈ 61.2 µM)	8 (≈ 30.6 µM)	32 (≈ 122 µM)
N[C@@H](C(=O)N[C@@H]1C(=O)N2C(C(=O)O)=C(Cl)CS[C@H]12)c1ccccc1 [CEFACLOR ANHYDROUS]	16 (≈ 43.5 µM)	8 (≈ 21.8 µM)	4 (≈ 10.9 µM)	8 (≈ 21.8 µM)	32 (≈ 87 µM)
